Measurements as given in patent US9834558B2, “Substituted bridged urea analogs as sirtuin modulators” (GLAXOSMITHKLINE LLC, priority 2013, dated 2017).
Like-named read-outs stand apart in the source and are kept apart here.

Biological target: T1, SIRT1 (Homo sapiens, UniProt Q96EB6)
T1 sequence (Q96EB6 1-747): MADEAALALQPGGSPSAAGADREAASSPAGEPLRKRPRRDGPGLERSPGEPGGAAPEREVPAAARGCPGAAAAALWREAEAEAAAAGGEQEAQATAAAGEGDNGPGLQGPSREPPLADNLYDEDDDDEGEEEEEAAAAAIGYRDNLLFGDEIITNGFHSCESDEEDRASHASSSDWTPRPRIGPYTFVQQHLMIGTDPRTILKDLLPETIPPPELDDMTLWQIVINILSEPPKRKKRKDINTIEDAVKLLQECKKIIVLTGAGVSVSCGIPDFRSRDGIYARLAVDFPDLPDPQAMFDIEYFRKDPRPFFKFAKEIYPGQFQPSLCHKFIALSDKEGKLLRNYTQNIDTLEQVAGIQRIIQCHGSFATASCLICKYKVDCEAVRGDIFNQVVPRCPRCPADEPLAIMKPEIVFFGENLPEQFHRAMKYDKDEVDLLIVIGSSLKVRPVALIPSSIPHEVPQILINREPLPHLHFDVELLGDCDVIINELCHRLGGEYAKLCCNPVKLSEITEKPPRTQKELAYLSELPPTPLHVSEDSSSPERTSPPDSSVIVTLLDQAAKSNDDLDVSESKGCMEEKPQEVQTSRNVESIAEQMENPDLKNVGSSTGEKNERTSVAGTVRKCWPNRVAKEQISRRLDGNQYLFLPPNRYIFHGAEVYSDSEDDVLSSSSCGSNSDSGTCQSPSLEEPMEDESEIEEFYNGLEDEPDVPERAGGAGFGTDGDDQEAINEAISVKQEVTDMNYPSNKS
Test: Trp mass spectrometry assay of SIRT1 activation
Format: biochemical
Settings: for TRP Activity (EC1.5): EC1.5 = concentration that results in 150% activation of SIRT1
Outline: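 N-terminal His-tagged human SIRT1 (10 nM, E. coli BL21(DE3)) with 0.5 μM Ac-RHKK(Ac)W-NH2 peptide and 120 μM βNAD+, 25 min at 25 °C in HEPES pH 7.5, formic acid stop. OAADPR or deacetylated peptide quantified by mass spectrometry; EC1.5 (50% activity increase over control) and Percent Maximum Activation reported.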

[1] = Trp peptide assay, maximum activity relative to control (100%), read-out: TRP MAX RESP (percent maximum fold activation)
[2] = Trp mass spectrometry assay, EC1.5 = concentration of test compound that results in 150% activation of SIRT1
[3] = concentration giving 150% activation of SIRT1, Trp peptide substrate
[4] = Trp mass spectrometry assay, concentration of test compound giving 150% activation of SIRT1

Compound	TRP Activity (EC1.5) (Trp peptide assay)	Emax [1]	Tryp AVG EC1.5 (μM) [2]	other results
CC(CO)NC(=O)c1ccc2c(n1)N(C(=O)Nc1ccccn1)[C@H]1CCN2C1 (stereo partly drawn) [(9S)-5-N-(1-hydroxypropan-2-yl)-8-N-(pyridin-2-yl)-1,6,8-triazatricyclo[7.2.1.0^{2,7}]dodeca-2(7),3,5-triene-5,8-dicarboxamide]	B (B (EC1.5 1-25 μM))	> 150%	–	–
O=C(Nc1nnc(-c2cccnc2)s1)N1c2nc(-c3cccc(C(F)(F)F)c3)ccc2N2CC[C@H]1C2 [Example 651]	–	–	–	Tryp AVG EC1.5 (μM) [3]: A (A (EC1.5<1 μM))
O=C(Nc1cccc(-c2cnco2)c1)N1c2nc(-c3cncc(F)c3)ccc2N2CC[C@H]1C2 [Example 722]	–	–	–	Tryp AVG EC1.5 (μM) [3]: A (A (EC1.5<1 μM))
Cn1nc(C(F)(F)F)cc1-c1ccc2c(n1)N(C(=O)Nc1cnccn1)[C@H]1CCN2C1 [(9S)-5-[1-methyl-3-(trifluoromethyl)-1H-pyrazol-5-yl]-N-(pyrazin-2-yl)-1,6,8-triazatricyclo[7.2.1.0 {2,7}]dodeca-2(7),3,5-triene-8-carboxamide]	B (B (EC1.5 1-25 μM))	> 150%	–	–
O=C(Nc1ccc(Oc2ccccc2)cc1)N1c2nc(-c3cccc(C(F)(F)F)c3)ccc2N2CC[C@H]1C2 [Example 641]	–	–	–	Tryp AVG EC1.5 (μM) [3]: C (C (EC1.5>25 μM))
O=C(Nc1cccnc1)N1c2nc(N3CCC[C@H](C(F)(F)F)C3)ccc2N2CCC[C@H]1C2 [(9S)-N-(pyridin-3-yl)-5-[(3S)-3-(trifluoromethyl)piperidin-1-yl]-1,6,8-triazatricyclo[7.3.1.0 {2,7}]trideca-2(7),3,5-triene-8-carboxamide]	A (A (EC1.5<1 μM))	> 150%	–	–
O=C(Nc1ccnc(OC[C@H](O)CO)n1)N1c2nc(-c3cccc(C(F)(F)F)c3)ccc2N2CC[C@H]1C2 [(9S)-N-{2-[(2R)-2,3-dihydroxypropoxy]pyrimidin-4-yl}-5-[3-(trifluoromethyl)phenyl]-1,6,8-triazatricyclo[7.2.1.0 {2,7}]dodeca-2(7),3,5-triene-8-carboxamide]	A (A (EC1.5<1 μM))	> 150%	–	–
O=C(Nc1cc(-c2cnco2)ccn1)N1c2nc(-c3cccc(Cl)c3)ccc2N2C[C@@H](O)[C@H]1C2 [Example 685]	–	–	–	Tryp AVG EC1.5 (μM) [3]: B (B (EC1.5 1-25 μM))
O=C(NC(CO)C(F)(F)F)c1ccc2c(n1)N(C(=O)Nc1ccccn1)[C@H]1CCN2C1 (stereo partly drawn) [(9S)-8-N-(pyridin-2-yl)-5-N-(1,1,1-trifluoro-3-hydroxypropan-2-yl)-1,6,8-triazatricyclo[7.2.1.0^{2,7}]dodeca-2(7),3,5-triene-5,8-dicarboxamide]	A (A (EC1.5<1 μM))	> 150%	–	–
Cc1nc(NC(=O)N2c3nc(-c4cccc(N(C)C)c4)ccc3N3CCC[C@H]2C3)sc1C [Example 383]	–	–	–	Tryp AVG EC1.5 (μM) [4]: A (A (EC1.5<1 μM))
O=C(Nc1cccc2nccnc12)N1c2nc(-c3cccc(C(F)(F)F)c3)ccc2N2CC[C@H]1C2 [Example 83]	–	–	–	Tryp AVG EC1.5 (μM) (Trp peptide substrate, concentration giving 150% activation of SIRT1): A (A (EC1.5<1 μM))
Cc1cc(-c2ccc3c(n2)N(C(=O)Nc2cnccn2)[C@H]2CCN3C2)[nH]n1 [(9S)-5-(3-methyl-1H-pyrazol-5-yl)-N-(pyrazin-2-yl)-1,6,8-triazatricyclo[7.2.1.0^{2,7}]dodeca-2(7),3,5-triene-8-carboxamide]	B (B (EC1.5 1-25 μM))	> 150%	–	–
O=C(Nc1ccncc1)N1c2nc(-c3cccc(C(F)(F)F)c3)ccc2N2CC(O)C1C2 (centres unmarked) [Compound 114]	–	–	–	Emax (Trp peptide substrate, percent maximum fold activation of SIRT1, read-out: Tryp % Fold Act): > 150%
O=C(NCCCc1ccccn1)N1c2nc(-c3cccc(C(F)(F)F)c3)ccc2N2CC[C@H]1C2 [Example 673]	–	–	–	Tryp AVG EC1.5 (μM) [3]: B (B (EC1.5 1-25 μM))
Cc1cc(-c2ccc3c(n2)N(C(=O)Nc2cnccn2)[C@H]2CCN3C2)cnc1C [(9S)-5-(5,6-dimethylpyridin-3-yl)-N-(pyrazin-2-yl)-1,6,8-triazatricyclo[7.2.1.0 {2,7}]dodeca-2(7),3,5-triene-8-carboxamide]	A (A (EC1.5<1 μM))	> 150%	–	–
O=C(NCCO)c1ccc2c(n1)N(C(=O)Nc1ccccn1)[C@H]1CCN2C1 [(9S)-5-N-(2-hydroxyethyl)-8-N-(pyridin-2-yl)-1,6,8-triazatricyclo[7.2.1.0^{2,7}]dodeca-2(7),3,5-triene-5,8-dicarboxamide]	B (B (EC1.5 1-25 μM))	> 150%	–	–
C#Cc1ccc(NC(=O)N2c3nc(-c4ccc(C5(C(F)(F)F)N=N5)cc4)ccc3N3CC[C@H]2C3)nc1 [Example 807]	–	–	–	Tryp AVG EC1.5 (μM) [3]: C (C (EC1.5>25 μM))
CC(C)(C)OC(=O)NCCCc1cc(NC(=O)N2c3nc(-c4cccc(C(F)(F)F)c4)ccc3N3CCC[C@H]2C3)cc(-c2cnco2)c1 [Example 754]	–	–	–	Tryp AVG EC1.5 (μM) [3]: A (A (EC1.5<1 μM)); Emax (percent maximum fold activation of SIRT1, Trp peptide substrate, read-out: Tryp % Fold Act): > 150%
Cc1cc(-c2ccc3c(n2)N(C(=O)Nc2cnccn2)[C@H]2CCN3C2)c(C)cn1 [(9S)-5-(2,5-dimethylpyridin-4-yl)-N-(pyrazin-2-yl)-1,6,8-triazatricyclo[7.2.1.0 {2,7}]dodeca-2,4,6-triene-8-carboxamide]	B (B (EC1.5 1-25 μM))	> 150%	–	–
O=C(Nc1ccncn1)N1c2nc(-c3cncc(C(F)(F)F)c3)ccc2N2CCC[C@H]1C2 [Example 393]	–	–	–	Tryp AVG EC1.5 (μM) [4]: A (A (EC1.5<1 μM))
Cc1ncc(-c2ccc3c(n2)N(C(=O)Nc2cnccn2)[C@H]2CCN3C2)o1 [(9S)-5-(2-methyl-1,3-oxazol-5-yl)-N-(pyrazin-2-yl)-1,6,8-triazatricyclo[7.2.1.0 {2,7}]dodeca-2(7),3,5-triene-8-carboxamide]	B (B (EC1.5 1-25 μM))	> 150%	–	–
Cc1cc(-c2ccc3c(n2)N(C(=O)N2CC[C@@H](C)C2)[C@H]2CCN3C2)ccn1 [(9S)-5-(2-methylpyridin-4-yl)-8-{[(3R)-3-methylpyrrolidin-1-yl]carbonyl}-1,6,8-triazatricyclo[7.2.1.0 {2,7}]dodeca-2,4,6-triene]	C (C (EC1.5>25 μM))	< 150%	–	–
O=C(Nc1cnccn1)N1c2nc(N3CCC(C(F)(F)F)CC3)ccc2N2CC[C@H]1C2 [(9S)-N-(pyrazin-2-yl)-5-[4-(trifluoromethyl)piperidin-1-yl]-1,6,8-triazatricyclo[7.2.1.0 {2,7}]dodeca-2(7),3,5-triene-8-carboxamide]	A (A (EC1.5<1 μM))	> 150%	–	–

Now from value to molecule, other results behind:

TRP Activity (EC1.5) (Trp peptide assay)	Emax [1]	Tryp AVG EC1.5 (μM) [2]	Compound	other results
–	–	B (B (EC1.5 1-25 μM))	Cc1ccncc1-c1ccc2c(n1)N(C(=O)Nc1cccnc1)[C@H]1CCCN2C1 [Example 516]	–
–	–	B (B (EC1.5 1-25 μM))	O=C(NCCc1ccccc1)N1c2nc(-c3cccc(C(F)(F)F)c3)ccc2N2CC[C@H]1C2 [Example 598]	–
–	–	A (A (EC1.5<1 μM))	O=C(Nc1ccnc(Br)c1)N1c2nc(-c3cccc(C(F)(F)F)c3)ccc2N2CC[C@H]1C2 [Example 541]	–
–	–	A (A (EC1.5<1 μM))	CC(C)(C)OC(=O)N1CCc2cc(NC(=O)N3c4nc(-c5cccc(C(F)(F)F)c5)ccc4N4CC[C@H]3C4)ccc2C1 [Example 611]	–
–	–	A (A (EC1.5<1 μM))	O=C(Nc1cnccn1)N1c2nc(-c3ccnc(N4CCC(F)(F)C4)c3)ccc2N2CC[C@H]1C2 [Example 423]	–
–	–	A (A (EC1.5<1 μM))	O=C(Nc1cccnc1)N1c2nc(-c3cccc(C(F)(F)F)c3)ccc2N2CCC1CC2 [Example 485]	–
–	–	B (B (EC1.5 1-25 μM))	O=C(Nc1cnccn1)N1c2nc(-c3cncc(F)c3)ccc2N2CCC1CC2 [Example 555]	–
–	–	B (B (EC1.5 1-25 μM))	O=C(Nc1cnccn1)N1c2nc(-c3ccnc(N4CC[C@@H](F)C4)c3)ccc2N2CC[C@H]1C2 [Example 462]	–
–	–	B (B (EC1.5 1-25 μM))	N#Cc1cncc(-c2ccc3c(n2)N(C(=O)Nc2cncc(F)c2)[C@H]2CCCN3C2)c1 [Example 535]	–
–	–	A (A (EC1.5<1 μM))	O=C(Nc1cncc(F)c1)N1c2nc(-c3ccnc(N4CC[C@H](F)C4)c3)ccc2N2CC[C@H]1C2 [Example 475]	–
–	–	C (C (EC1.5>25 μM))	COc1cc(NC(=O)N2c3nc(-c4cncc(Cl)c4)ccc3N3CCC2CC3)ncn1 [Example 552]	–
–	–	C (C (EC1.5>25 μM))	CN1CCCN(c2ccc3c(n2)N(C(=O)Nc2ccncn2)[C@H]2CCCN3C2)CC1 [Example 484]	–
–	–	A (A (EC1.5<1 μM))	Cc1cc(-c2ccc3c(n2)N(C(=O)Nc2nc(C)c(C)s2)[C@H]2CCN3C2)ccn1 [Example 481]	–
–	–	A (A (EC1.5<1 μM))	Cc1cncc(-c2ccc3c(n2)N(C(=O)Nc2ccncn2)[C@H]2CCCN3C2)c1 [Example 517]	–
